Test results reported in patent US7160992B2, “Amino-modified polysaccharides and methods of generating and using same” (Yeda Research and Development Co., Ltd., priority 2003, dated 2007).
≈ marks a conversion by molar mass, not a printed value. Where “and” joins values, the source holds several entries; their conditions need not be identical. Identical values can stand only once.

Assays:
S. aureus = assay: Minimal inhibitory concentration, serial two-fold dilutions in TSB; format: cell-based
P. aeruginosa = assay: as above; format: cell-based
CD4 = molecular target: T1, CD4 (Homo sapiens, UniProt P01730); details: PHA stimulated peripheral blood lymphocytes; cited from earlier work
T1 construct: in PHA stimulated peripheral blood lymphocytes (PBL); host or cells: PHA stimulated peripheral blood lymphocytes (PBL)

E. faecalisr = assay: Minimal inhibitory concentration, serial two-fold dilutions in TSB; format: cell-based
TAR RNA = assay: Fluorescence anisotropy: RhdRev binding and AAC competition for TAR RNA; parameters: species or system HIV-1
ICR (CD-1) mice = assay: Acute intravenous toxicity of NeoR6 in mice; format: in vivo
Method: Injection volumes applied ranged from 4–10 ml/kg
Observation of clinical signs post-NeoR6 injection—On the day of injection, careful clinical examinations were carried out continuously during the first 90 minutes post-injection. Thereafter, animals were inspected at least once a day for 14 consecutive days. Observations included changes in the skin and fur, eyes and mucous membranes, respiratory, circulatory, autonomic and central nervous systems, somatomotor activity and behavior pattern with particular attention to occurrence of tremors, convulsions, salivation, diarrhea, lethargy, sleep and coma.
Necropsy and Gross Pathology—All test animals, including decedents were subjected to gross necropsy. At necropsy all animals were thoroughly examined for abnormality of tissues or organs. All major body cavities were opened, larger organs were sectioned and the gastro-intestinal tract was opened at intervals for examination of the mucosal surfaces. The normal appearance of major organs was confirmed for each animal and any gross pathological changes or abnormalities were described.

CCR5 = molecular target: T2, CCR5 (Homo sapiens, UniProt P51681); details: PHA stimulated peripheral blood lymphocytes; cited from earlier work
T2 construct: in PHA stimulated peripheral blood lymphocytes (PBL); host or cells: PHA stimulated peripheral blood lymphocytes (PBL)

[1] = system: lymphocytes, PBMC and neurons; details: cited from earlier work
RRE IIB RNA = assay: Fluorescence anisotropy: RhdRev binding and AAC competition for RRE IIB RNA; parameters: species or system HIV-1
CXCR4 = molecular target: T3, CXCR4 (Homo sapiens, UniProt P61073); assay: Inhibition of anti-CXCR4 mAb 12G5 binding to cells, flow cytometry; format: cell-based; details: 10 μM AAC
T3 construct: endogenous in cells; host or cells: PM1 cells and PBMC
Method: FIGS. 11a–d are graphs depicting the binding of AACs to CXCR4 in the presence of anti CXCR4 antibody (12G5). PM1 cells were incubated with PE-conjugated isotype control mAb, PE-anti CXCR4 conjugated mAb (12G5) alone, or in the presence of the indicated AACs for 30 min at 4° C. The cells were then washed twice with PBS and analyzed by flow cytometry. The MFI values are shown in parenthesis.
Interaction of AACs with CXCR4 was determined by flow cytometry (FACScan, Becton Dickinson) as described recently (Litovchick et al., 2001, supra). Briefly, 0.5×10^6 cells were washed in ice-cold PBS containing 0.1% sodium azide (wash buffer) and incubated at 4° C. with anti-CXCR4 mAb, 12G5 (PharMingen, San Diego, Calif.) conjugated to phycoerithrine (PE), in the absence or presence of different concentrations of the AACs. After 30 min of incubation, the cells were washed with ice-cold wash buffer and fixed in PBS containing 1% paraformaldehyde. Non-specific fluorescence was assessed by using isotype-matched control. For each sample 10,000 events were acquired. Data were analyzed and processed using CellQuest™ software (Becton Dickinson).

B. subtilis = assay: Minimal inhibitory concentration, serial two-fold dilutions in TSB; format: cell-based
Gram-positive bacteria = assay: Minimal inhibitory concentration, Gram-positive bacteria as a group; format: cell-based; details: range over susceptible Gram-positive bacteria
[2] = system: U38, PM1, H9 cells and PBMC; assay: Cellular uptake of AAC-FITC fluorescent probes, fluorescence microscopy; format: cell-based; details: 0.5 μM, 10 minutes of incubation
Method: Images were obtained using a Zeiss Axiophot microscope.
Cellular uptake using AAC fluorescent probes—U38, PM1, H9 cells and PBMC(10^5) were incubated for 20 minutes at room temperature in 100 μl RPMI 1640 medium (Gibco-BRL, Life-Technologies, UK) including AAC-FITC derivatives as indicated at a final concentration of 0.5 μM. Cells were washed twice, resuspended in 100 μl medium and analyzed with a Zeiss Axiophot fluorescent microscope.

E. coli = assay: Minimal inhibitory concentration, serial two-fold dilutions in TSB; format: cell-based
HIV-1IIIB wild type = assay: Inhibition of HIV-1IIIB wild type in MT2 or cMAGI cells; format: cell-based; details: HIV-1IIIB wt; mean and standard deviation of three separate experiments; read-out: EC50, Wild-type
Description: The cMAGI assay is based on the ability of HIV-1 TAT to transactivate the expression of an integrated β-galactosidase reporter gene driven by the HIV-LTR [Chackerian, B. et al., 1997. J Virol. 71: 3932–3939; Collins, K. B. et al., 2000. Nat. Med. 6: 475–479]. The β-galactosidase reporter has been modified to remain localized in the nucleus where it can be detected with the X-gal substrate as an intense nuclear stain within a few days of infection. The X-gal substrate used was 5-bromo-4-chloro-3-indoyl-beta-D-galactopyranoside. HIV1IIIB was propagated by subculture in MT2 as described previously [Litovchick (2001) Supra]. Aliquots of cell-free culture supernatants were used as viral inoculum. […] The cytopathic effects of the viral infection of MT2 cells were analyzed by microscopic assessment of syncytium formation. These latter data were obtained by analysis of duplicate samples by two independent observers. HIV-1 infection of cMAGI cells was determined by counting the number of HIV-1 infected cells (stained blue).

cMAGI cells = assay: Competition between FITC-labelled AACs and RANTES; format: cell-based; details: 2.5 mM RANTES
Method: Competition between FITC labelled AACs (1 mM) and RANTES (2.5 mM, Pepro Tech Inc., New Jersey, USA) was effected in 2×10^5 cMAGI cells. Following 30 min of incubation, cells were washed with ice-cold wash buffer and analysed by flow cytometry as described above.

S. epidermidis = assay: Minimal inhibitory concentration, serial two-fold dilutions in TSB; format: cell-based

T3 sequence (P61073 whole entry): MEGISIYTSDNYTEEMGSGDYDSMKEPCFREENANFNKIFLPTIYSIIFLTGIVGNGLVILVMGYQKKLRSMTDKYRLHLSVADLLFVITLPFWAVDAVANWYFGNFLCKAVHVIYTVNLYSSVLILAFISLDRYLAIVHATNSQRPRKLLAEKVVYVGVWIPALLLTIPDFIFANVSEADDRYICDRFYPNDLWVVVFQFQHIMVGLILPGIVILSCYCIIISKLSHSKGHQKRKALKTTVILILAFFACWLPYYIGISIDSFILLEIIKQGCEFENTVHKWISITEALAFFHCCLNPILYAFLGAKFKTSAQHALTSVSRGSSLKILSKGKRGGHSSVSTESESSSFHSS
T2 sequence (P51681 whole entry): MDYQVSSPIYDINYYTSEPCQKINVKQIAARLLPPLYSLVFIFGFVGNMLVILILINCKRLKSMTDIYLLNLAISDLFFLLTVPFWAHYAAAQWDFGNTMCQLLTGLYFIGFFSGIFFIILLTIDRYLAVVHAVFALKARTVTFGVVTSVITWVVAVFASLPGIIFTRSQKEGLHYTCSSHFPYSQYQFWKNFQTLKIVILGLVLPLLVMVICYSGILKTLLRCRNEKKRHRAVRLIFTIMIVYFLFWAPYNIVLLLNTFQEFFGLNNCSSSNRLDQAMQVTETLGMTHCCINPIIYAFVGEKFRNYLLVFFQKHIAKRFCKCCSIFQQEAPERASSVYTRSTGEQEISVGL

NC(N)=NCCC[C@H](N)C(=O)NC[C@@H]1OC(O[C@H]2[C@@H](O)[C@H](O[C@@H]3[C@@H](O)[C@H](NC(=O)[C@@H](N)CCCN=C(N)N)C[C@H](NC(=O)[C@@H](N)CCCN=C(N)N)[C@H]3O[C@H]3O[C@H](CNC(=O)[C@@H](N)CCCN=C(N)N)[C@@H](O)[C@H](O)[C@H]3NC(=O)[C@@H](N)CCCN=C(N)N)O[C@@H]2CO)[C@H](NC(=O)[C@@H](N)CCCN=C(N)N)[C@@H](O)[C@@H]1O (stereo partly shown) [NeoR6, Neomycin hexa-arginine conjugate]
MIC (S. aureus): 6.25 µg/mL (≈ 4.03 µM) | MIC (P. aeruginosa): 100 µg/mL (≈ 64.4 µM) | inhibition of binding of anti CD4 antibody (Leu 3a) (CD4): neither R3G nor R4K or NeoR6 inhibit the binding | MIC (mg/L) (E. faecalisr): ≧200 mg/L | Kd (TAR RNA; competition of AACs with RhdRev (10 nM) for TAR RNA (20 nM) binding, 85 mM NaCl): 5 nM | IC50 (TAR RNA; competition of AACs with RhdRev for TAR RNA binding): 19.9 ± 2.7 nM | competition with RhdRev for TAR RNA binding (in words) (TAR RNA; up to 20 μM of AAC): efficiently competed | adverse effects (ICR (CD-1) mice; 50 mg/kg as 2 successive injections, interdosing interval of 3 hours): did not cause any adverse effects other than a very transient reduction in respiratory rate and spontaneous motor activity | weight gain (in words) (ICR (CD-1) mice; 14-day observation period, all mice except 2 females (10 or 30 mg/kg)): normal mode of weight gain | maximum tolerated dose (MTD) (ICR (CD-1) mice; acute IV administration): 30 to 35 mg/kg | pathological findings at necropsy (ICR (CD-1) mice; decedent and surviving animals): no pathological findings | Weight Gain (gr.) (Day 1–15) (ICR (CD-1) mice; group 2F, 1 female, 15 mg/kg single bolus): 4.3 gr. | Weight Gain (gr.) (Day 1–15) (ICR (CD-1) mice; group 3F, 1 female, 25 mg/kg single bolus): 5.3 gr. | Weight Gain (gr.) (Day 1–15) (ICR (CD-1) mice; group 4F, 2 females, 30 mg/kg single bolus, one survivor): 1.6; — gr. | clinical signs (ICR (CD-1) mice; single IV 30 and 35 mg/kg, confined to the first 10 min after dosing): respiratory and motoric irregularities | mortality (ICR (CD-1) mice; single female mouse, 30 mg/kg IV): died within the first five minutes post-injection | reaction to treatment (ICR (CD-1) mice; single intravenous administration, 10, 15 and 25 mg/kg): No obvious reaction to treatment | toxicity when given intravenously (ICR (CD-1) mice; two single doses of 25 mg/kg of body weight over the course of 2 hours): non-toxic | inhibition of binding of 2D7, a mAb directed to CCR5 (CCR5): neither R3G nor R4K or NeoR6 inhibit the binding | accumulation in cells [1]: accumulate in different cell types | Kd (RRE IIB RNA; competition of AACs with RhdRev (10 nM) for RRE IIB RNA (20 nM) binding, 85 mM NaCl): 23 nM and 23.3 nM | IC50 (RRE IIB RNA; competition of AACs with RhdRev for RRE IIB RNA binding): 72.7 ± 10.1 nM | reduction of 12G5 mAb binding to the cells (CXCR4; PM1 cells, 30 min at 4° C.): 90% | median fluorescence intensity (MFI) of PE-12G5 in presence of AAC (CXCR4; mAb alone 451, isotype control 30): 76 | MIC (B. subtilis): 1.56 µg/mL (≈ 1.01 µM) | MIC values, Gram-positive bacteria (Gram-positive bacteria): 0.78 to 6.25 µg/mL | cellular uptake of FITC-labeled AAC by PM1 cells [2]: uptaken by PM1 cells | MIC (E. coli): 100 µg/mL (≈ 64.4 µM) | EC50 (HIV-1IIIB wild type): 1900 nM | effect of RANTES on uptake of FITC derivative (cMAGI cells): did not affect uptake | MIC (S. epidermidis): 0.78 µg/mL (≈ 0.503 µM)
